Experimental data as given in ChEMBL document CHEMBL1134200, “Pimarane cyclooxygenase 2 (COX-2) inhibitor and its structure-activity relationship” (Bioorg Med Chem Lett, 2001).
pIC50: −log10 of the molar value.

Target: T1, Prostaglandin G/H synthase 2 (Ovis aries, UniProt P79208)
T1 sequence (P79208 whole entry): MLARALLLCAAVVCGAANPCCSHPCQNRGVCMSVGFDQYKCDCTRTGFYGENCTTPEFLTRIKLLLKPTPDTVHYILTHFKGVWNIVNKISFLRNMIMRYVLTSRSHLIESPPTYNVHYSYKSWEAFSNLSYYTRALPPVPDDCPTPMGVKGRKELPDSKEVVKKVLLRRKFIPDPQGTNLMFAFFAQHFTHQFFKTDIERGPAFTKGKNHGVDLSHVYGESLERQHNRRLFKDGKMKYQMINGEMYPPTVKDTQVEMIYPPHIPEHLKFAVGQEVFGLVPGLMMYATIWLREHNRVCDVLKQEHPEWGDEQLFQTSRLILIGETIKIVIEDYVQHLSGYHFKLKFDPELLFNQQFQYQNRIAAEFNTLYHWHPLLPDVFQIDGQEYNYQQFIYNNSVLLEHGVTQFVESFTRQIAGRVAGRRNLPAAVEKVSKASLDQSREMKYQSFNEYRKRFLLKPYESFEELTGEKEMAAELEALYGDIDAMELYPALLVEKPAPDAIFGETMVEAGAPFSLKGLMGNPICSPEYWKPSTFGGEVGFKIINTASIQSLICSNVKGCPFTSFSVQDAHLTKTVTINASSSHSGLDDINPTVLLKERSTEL
Test: Inhibitory activity against Prostaglandin G/H synthase 2 from sheep placental cotyledons

pIC50 | Structure (SMILES)
3.98 | C=C[C@@]1(C)CC=C2C(CCC3[C@](C)(CCC(=O)O)CCC[C@@]23C)C1 (stereo not given in full)
3.71 | C[C@]1(CCF)CC=C2C(CCC3[C@](C)(C(=O)F)CCC[C@@]23C)C1 (stereo not given in full)
< 3.00 | C=C[C@@]1(C)CC=C2C(CCC3[C@](C)(C(=O)OC)CCC[C@@]23C)C1 (stereo not given in full)
< 3.00 | C[C@]1(CCF)CC=C2C(CCC3[C@](C)(C(=O)O)CCC[C@@]23C)C1 (stereo not given in full)
4.08 | C=C[C@@]1(C)CC=C2C(CCC3[C@](C)(CC(=O)O)CCC[C@@]23C)C1 (stereo not given in full)
< 3.00 | C=C[C@@]1(C)CC=C2C(CCC3[C@](C)(C(N)=O)CCC[C@@]23C)C1 (stereo not given in full)
4.88 | C=C[C@@]1(C)CC=C2C(CCC3[C@](C)(CCC/C=C/C(=O)O)CCC[C@@]23C)C1 (stereo not given in full)
< 3.00 | C=C[C@@]1(C)CC=C2C(CCC3[C@](C)(CO)CCC[C@@]23C)C1 (stereo not given in full) [ACANTHOL]
3.10 | C[C@]1(CC(F)F)CC=C2C(CCC3[C@](C)(C(=O)O)CCC[C@@]23C)C1 (stereo not given in full)
3.37 | CC[C@@]1(C)CC=C2C(CCC3[C@](C)(C(=O)O)CCC[C@@]23C)C1 (stereo not given in full)
< 3.00 | CC(=O)OCC[C@@]1(C)CC=C2C(CCC3[C@](C)(C(=O)O)CCC[C@@]23C)C1 (stereo not given in full)
< 3.00 | C[C@]1(CCO)CC=C2C(CCC3[C@](C)(C(=O)O)CCC[C@@]23C)C1 (stereo not given in full)
3.09 | C=C[C@@]1(C)CC=C2C(CCC3[C@](C)(C(=O)NO)CCC[C@@]23C)C1 (stereo not given in full)
< 3.00 | C[C@@]1(C2CO2)CC2CCC3[C@](C)(C(=O)O)CCC[C@@]3(C)[C@@]23O[C@H]3C1 (stereo not given in full)
< 3.00 | COCC[C@@]1(C)CC=C2C(CCC3[C@](C)(C(=O)O)CCC[C@@]23C)C1 (stereo not given in full)
